This is an account of results in paper PMC4002244, “ACE2 deficiency increases NADPH‐mediated oxidative stress in the kidney” (Physiological Reports, 2014).

SMILES strings stand for the structures.

Series [1] in a line: Ex vivo degradation of exogenous Ang II in kidney cortex lysates. The class given is in vitro ADME, mouse. Particulars: 6 μg protein, Ang II 10^-9 mol/L, PBS pH 7.4 with 5 μmol/L ZnCl2, 37°C, ELISA. How it is done: (§1) Kidney cortex lysates (from ACE2 KO and WT mice) corresponding to 6 μg of total protein were individually incubated with 10^−9mol/L angiotensin II (Sigma‐Aldrich, St. Louis, MO) by constant shaking for up to 24 h at 37°C in PBS pH 7.4 containing 5 μmol/L ZnCl2. The incubation was performed with or without addition of the specific ACE2 inhibitor, MLN‐4760 (10^−6mol/L). Following the incubation, samples were diluted 1/5 in EDTA‐containing buffer (0.1 mol/L phosphate buffer, pH 7.4 containing 0.15 mol/L NaCl, 1 mmol/L EDTA, 0.1% BSA) and immediately frozen. The quantity of Ang II in the diluted samples was measured using enzyme‐linked immunosorbent assay kits (SPIBio, Cayman Chemical). Angiotensin quantity in each sample was expressed as a percentage ratio of the Ang remaining after a given incubation time to the initial Ang load (100%).
Background: An ELISA detects its analyte on a solid surface through an enzyme-linked reagent.

Another series has as its target T1, ACE2 (Mus musculus, UniProt Q8R0I0).
T1 construct: from tissue; host or cells: kidney cortex of wild-type C57BL/6 mice (littermates of the ACE2KO mice)
The experiment in a line: Ex vivo Ang II degradation by kidney cortex lysates with ACE2 inhibitor. Conditions: WT lysates (6 μg protein, n = 5), MLN-4760 10^-6 mol/L, Ang II 10^-9 mol/L, PBS pH 7.4 with 5 μmol/L ZnCl2, 37°C, up to 24 h, Ang II by ELISA; P < 0.05 vs. WT without MLN-4760; similar to ACE2KO. The class given is biochemical. The protocol:
as §1

Series [2] has as its system kidney cortex NADPH oxidase activity. Put plainly: Kidney cortex NADPH oxidase activity (lucigenin chemiluminescence) in ACE2KO mice after angiotensin receptor blockade. The class given is in vivo, mouse. Particulars: for Kidney cortex NADPH oxidase activity, percent of WT controls: male ACE2KO C57BL/6 mice, 2 weeks. How it is done: NADPH oxidase activity in kidney cortex was measured using lucigenin (5 μmol/L) and NADPH (100 μmol/L) as previously described (Block et al. 2007). Light emission was recorded every 1 min over a 10‐min period at room temperature in a 20/20^n luminometer (Turner Biosystems, Sunnyvale, CA). Superoxide anion production was expressed as relative chemiluminescence (light) units (RLU)/μg protein. There was no measurable activity in the absence of NADPH. Protein content was measured using the BCA protein assay reagent (Pierce, Rockford, IL).
ACE2KO and control mice at the age of 20–30 weeks were treated with losartan (Triangle Compounding Pharmacy, Cary, NC) or placebo for 2 weeks. Losartan was administered to ACE2KO at two doses: 10 mg/kg/day (n = 4) and 30 mg/kg/day (n = 5) in drinking water in two separate experiments. Another group of ACE2KO (n = 6) and WT controls (n = 5 and n = 10) were given vehicle drug, with similar taste and consistency. Water bottles were weighed daily to document accurate drug consumption. At the end of 2 weeks of treatment with losartan, we proceeded to measure markers of oxidative stress as described above.
A separate group of male ACE2 knockout mice at 35 weeks of age underwent either sham operation (n = 8) or osmotic minipump (Alzet 1002) implantation to infuse the AT2 receptor blocker, PD123319 (2 mg/kg/day, n = 8) for 14 days. Pumps were implanted subcutaneously on the back between the shoulder blades and hips while animals were anesthetized by inhalation of isoflurane anesthetic. At the end of 2 weeks of treatment with PD123319, we proceeded to measure markers of oxidative stress as described above.

T1 sequence (Q8R0I0 18-805): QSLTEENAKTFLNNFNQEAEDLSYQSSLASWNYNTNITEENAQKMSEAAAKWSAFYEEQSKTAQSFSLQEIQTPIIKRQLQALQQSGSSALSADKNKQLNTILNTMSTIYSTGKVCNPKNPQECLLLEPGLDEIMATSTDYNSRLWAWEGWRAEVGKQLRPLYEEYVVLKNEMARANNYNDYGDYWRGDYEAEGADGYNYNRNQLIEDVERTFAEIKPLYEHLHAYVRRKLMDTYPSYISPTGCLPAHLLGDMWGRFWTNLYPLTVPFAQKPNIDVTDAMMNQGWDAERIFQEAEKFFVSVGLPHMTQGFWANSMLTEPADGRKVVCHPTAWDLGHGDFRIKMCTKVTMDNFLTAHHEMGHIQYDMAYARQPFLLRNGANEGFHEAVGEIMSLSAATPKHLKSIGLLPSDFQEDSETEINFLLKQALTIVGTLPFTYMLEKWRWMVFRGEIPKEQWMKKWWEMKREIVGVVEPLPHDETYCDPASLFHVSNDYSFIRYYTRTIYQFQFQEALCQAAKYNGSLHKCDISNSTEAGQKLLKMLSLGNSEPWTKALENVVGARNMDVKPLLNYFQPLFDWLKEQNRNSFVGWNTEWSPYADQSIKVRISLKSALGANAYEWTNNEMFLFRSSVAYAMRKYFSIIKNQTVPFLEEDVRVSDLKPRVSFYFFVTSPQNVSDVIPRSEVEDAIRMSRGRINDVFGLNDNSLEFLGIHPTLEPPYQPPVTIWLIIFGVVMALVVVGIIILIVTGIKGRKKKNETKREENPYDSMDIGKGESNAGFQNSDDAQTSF

`CC[C@H](C)[C@H](NC(=O)[C@H](Cc1ccc(O)cc1)NC(=O)[C@@H](NC(=O)[C@H](CCCNC(=N)N)NC(=O)[C@@H](N)CC(=O)O)C(C)C)C(=O)N[C@@H](Cc1cnc[nH]1)C(=O)N1CCC[C@H]1C(=O)N[C@@H](Cc1ccccc1)C(=O)O` [Ang II, angiotensin II]: the “Ang II degradation by WT versus ACE2KO kidney cortex lysates (in words)” value in series [1] (6 and 24 h of incubation, n = 5 per group, P < 0.05) was “kidney lysates from WT mice degrade significantly more Ang II than the lysates obtained from ACE2KO”. For the same molecule, the metabolised in series [1] (mouse, kidney cortex lysates (ACE2 KO, with MLN-4760 (ACE2 inhibitor, 10^-6 mol/L) in the WT lysates), lysates of ACE2 KO or WT + MLN-4760 (10^-6 mol/L), constant shaking, up to 24 h, n = 5, read-out: Proportion of Ang II degraded in kidney cortex lysates despite the lack of ACE2) was ~50%.

`CC(C)C[C@H](N[C@@H](Cc1cncn1Cc1cc(Cl)cc(Cl)c1)C(=O)O)C(=O)O` [MLN-4760]: on ACE2, the “Effect of co-incubation on Ang II degradation rate by WT kidney cortex lysates” value is reported as “significant decrease in Ang II degradation rate”.

Consider `Cc1cc(Cn2cnc3c2C[C@@H](C(=O)O)N(C(=O)C(c2ccccc2)c2ccccc2)C3)ccc1N(C)C` [PD123319], for which the “Kidney NADPH oxidase activity, percent of sham-operated ACE2KO mice” value in series [2] (male ACE2KO mice, 35 weeks old, PD123319 2 mg/kg/day subcutaneous osmotic minipump, 14 days, n = 8, sham-operated ACE2KO 100 ± 21%, P = 0.541, mean ± SEM, SEM) stood at 83 ± 17%.

Regarding `CCCCc1nc(Cl)c(CO)n1Cc1ccc(-c2ccccc2-c2nn[nH]n2)cc1` [losartan], the “Effect on kidney NADPH oxidase activity in ACE2KO (in words)” value in series [2] (ACE2KO mice, losartan 30 mg/kg/day) is on record as “normalization of NADPH oxidase activity”. Further, the “Kidney cortex NADPH oxidase activity, percent of WT controls” value was determined as 201 ± 22% in series [2] (losartan 10 mg/kg/day in drinking water, n = 4, vehicle WT 100 ± 20%, P < 0.05, vehicle ACE2KO 181 ± 24%, mean ± SEM, SEM) and 83 ± 29% in series [2] (losartan 30 mg/kg/day in drinking water, n = 5, vehicle WT 100 ± 18% (n = 10), P = 0.709, mean ± SEM, SEM).
